Experimental findings from the supplement of paper PMC11616607 are described below.

One assay deals with Kuramochi. Description: drug sensitivity score (DSS) from 5-point dose-response viability curve (DSS (area-under-curve based score)); higher = more sensitive (stronger growth inhibition or killing); extreme values may be limits of the assay. To be noted: exposure time: 72 h; concentration range: 5 concentrations over 10,000-fold range. The gist of the method: (§1)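 For the drug sensitivity score, obtained per cell line and drug in Breeze software, larger values mean greater sensitivity. No response corresponds to a score of zero. Ovarian cancer and normal ovarian cells were seeded at 1,500 per well into 384-well plates already holding acoustically dispensed drugs (Echo 550, DMSO or water, five concentrations over a 10,000-fold range) and incubated 3 days at 37°C, 5% CO2. CellTiter-Glo luminescence on a PHERAstar FS gave the viability readout.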
In the case of `CN(C)CCOc1ccc(/C(=C(/CCCl)c2ccccc2)c2ccccc2)cc1` [Toremifene], the drug sensitivity score was found to be 3.5. Compound `CC(C)C[C@@H](C(=O)N[C@H](C(=O)OC1CCCC1)c1ccccc1)[C@H](O)C(=O)NO` [Tosedostat] had a drug sensitivity score of 0.6. `Cc1cc(Nc2cc(N3CCN(C)CC3)nc(Sc3ccc(NC(=O)C4CC4)cc3)n2)n[nH]1` [Tozasertib]: the drug sensitivity score stood at 3.6.

Compound `CC(=O)Nc1cccc(-n2c(=O)n(C3CC3)c(=O)c3c(Nc4ccc(I)cc4F)n(C)c(=O)c(C)c32)c1` [Trametinib] came in with a drug sensitivity score of 7.1. Same read-out and setting: the result for `CC1=C(/C=C/C(C)=C/C=C/C(C)=C/C(=O)O)C(C)(C)CCC1` [Tretinoin] reads 0; that for `NC(=S)N/N=C/c1ncccc1N` [Triapine], 0.5; that for `O=c1[nH]c(=O)n([C@H]2C[C@H](O)[C@@H](CO)O2)cc1C(F)(F)F` [Trifluridine], 0. In turn, `O=C(CCCCCCC(=O)Nc1ccc([C@H]2O[C@@H](CSc3nc(-c4ccccc4)c(-c4ccccc4)o3)C[C@@H](c3ccc(CO)cc3)O2)cc1)NO` [Tubacin] displayed a drug sensitivity score of 2.6. For `CN1CCc2c(c3ccccc3n2Cc2ccc(C(=O)NO)cc2)C1` [Tubastatin A], the drug sensitivity score came to 1.5. On to `Cc1cc(Nc2ncnc3ccc(NC4=NC(C)(C)CO4)cc23)ccc1Oc1ccn2ncnc2c1` [Tucatinib], for which the drug sensitivity score was determined as 0. Take `Nc1cc(F)ccc1NC(=O)c1ccc(CNC(=O)/C=C/c2cccnc2)cc1` [Tucidinostat]: the drug sensitivity score was determined as 2.1. Regarding `CN[C@@H]1C[C@H]2O[C@@](C)([C@@H]1OC)n1c3ccccc3c3c4c(c5c6ccccc6n2c5c31)C(=O)N[C@H]4O` [UCN-01], the drug sensitivity score is 14.6. As for `COC(=O)c1ccc2c(c1)[nH]c1ncnc(NCCCN3CCCCC3)c12` [UM729], the drug sensitivity score worked out at 0. For the compound `COc1cc2c(NC3CCN(C(C)C)CC3)nc(C3CCCCC3)nc2cc1OCCCN1CCCC1` [UNC0638], the drug sensitivity score was found to be 0.8. Consider `COc1cc2c(NC3CCN(C(C)C)CC3)nc(N3CCC(F)(F)CC3)nc2cc1OCCCN1CCCC1` [UNC0642], for which the drug sensitivity score was 0. The same measure, in the same setting: next, `O=C(c1ccc(C(=O)N2CCC(N3CCCC3)CC2)c(Nc2ccccc2)c1)N1CCC(N2CCCC2)CC1` [UNC1215]: 0; `CCCCNc1ncc(C(=O)NCc2ccc(-n3ccnc3)cc2)c(NC2CCC(O)CC2)n1` (stereo unspecified) [UNC2881]: 0. Still for that read-out and setting: the result for `NC(=O)c1cccc(-c2cccc(OC(=O)NC3CCCCC3)c2)c1` [URB597] reads 0; that for `CC(C)Nc1cc(-c2c[nH]c(C(=O)N[C@H](CO)c3cccc(Cl)c3)c2)c(Cl)cn1` [Ulixertinib], 7.7. As for `CC[C@@H]1CN(C(=O)NCC(F)(F)F)C[C@@H]1c1cnc2cnc3[nH]ccc3n12` [Upadacitinib], the drug sensitivity score was found to be 0.8. Consider `Cn1ncc(Cl)c1-c1cc(C(=O)N[C@H](CN)Cc2ccc(F)c(F)c2)oc1Cl` [Uprosertib], for which the drug sensitivity score was 1. Compound `CS(=O)(=O)c1ccc(-c2cnc(N)c(C(=O)Nc3ccccc3)n2)cc1` [VE-821] gave a drug sensitivity score of 0. Compound `O=C(O)CC1CC(c2ccccc2)=NO1` (stereo unspecified) [VGX-1027] showed a drug sensitivity score of 0.

Compound `C=CC(=O)N1CC/C(=C\c2ccc(F)c([N+](=O)[O-])c2)C(=O)/C(=C/c2ccc(F)c([N+](=O)[O-])c2)C1` [VLX1570] displayed a drug sensitivity score of 18. The compound `CNC(=O)c1ccccc1Nc1cc(Nc2ccc(N3CCOCC3)cc2OC)ncc1C(F)(F)F` [VS-4718] came in with a drug sensitivity score of 11.6. Take `CCCC(CCC)C(=O)O` [Valproic acid]: the drug sensitivity score was 0. In turn, `CCCCC(=O)OCC(=O)[C@]1(O)Cc2c(O)c3c(c(O)c2[C@@H](O[C@H]2C[C@H](NC(=O)C(F)(F)F)[C@H](O)[C@H](C)O2)C1)C(=O)c1c(OC)cccc1C3=O` [Valrubicin] displayed a drug sensitivity score of 6.6. Same read-out and setting: next, `COc1cc2/c(=N/c3ccc(Br)cc3F)nc[nH]c2cc1OCC1CCN(C)CC1` [Vandetanib]: 2.9; `CCc1c(C(=O)C(N)=O)c2c(OCC(=O)O)cccc2n1Cc1ccccc1` [Varespladib]: 0; `C[C@@H]1COC(Nc2ccc3ncnc(Nc4ccc(OCc5nccs5)c(Cl)c4)c3c2)=N1` [Varlitinib]: 0.4. `Clc1ccc(Nc2nnc(Cc3ccncc3)c3ccccc23)cc1` [Vatalanib] had a drug sensitivity score of 0.

The test system of a further assay is OV90. Described as above. To be noted: exposure time: 72 h; concentration range: 5 concentrations over 10,000-fold range. The gist of the method: as §1
In the case of `CN(C)CCOc1ccc(/C(=C(/CCCl)c2ccccc2)c2ccccc2)cc1` [Toremifene], the drug sensitivity score worked out at 5.3. The same measure, in the same setting: next, `CC(C)C[C@@H](C(=O)N[C@H](C(=O)OC1CCCC1)c1ccccc1)[C@H](O)C(=O)NO` [Tosedostat]: 12.3; `Cc1cc(Nc2cc(N3CCN(C)CC3)nc(Sc3ccc(NC(=O)C4CC4)cc3)n2)n[nH]1` [Tozasertib]: 6.4; `CC(=O)Nc1cccc(-n2c(=O)n(C3CC3)c(=O)c3c(Nc4ccc(I)cc4F)n(C)c(=O)c(C)c32)c1` [Trametinib]: 25. The same measure, in the same setting: the result for `CC1=C(/C=C/C(C)=C/C=C/C(C)=C/C(=O)O)C(C)(C)CCC1` [Tretinoin] reads 0. The same measure, in the same setting: the result for `NC(=S)N/N=C/c1ncccc1N` [Triapine] reads 1.1; that for `O=c1[nH]c(=O)n([C@H]2C[C@H](O)[C@@H](CO)O2)cc1C(F)(F)F` [Trifluridine], 2.1. Compound `O=C(CCCCCCC(=O)Nc1ccc([C@H]2O[C@@H](CSc3nc(-c4ccccc4)c(-c4ccccc4)o3)C[C@@H](c3ccc(CO)cc3)O2)cc1)NO` [Tubacin] yielded a drug sensitivity score of 2.4. In turn, `CN1CCc2c(c3ccccc3n2Cc2ccc(C(=O)NO)cc2)C1` [Tubastatin A] returned a drug sensitivity score of 3.4. `Cc1cc(Nc2ncnc3ccc(NC4=NC(C)(C)CO4)cc23)ccc1Oc1ccn2ncnc2c1` [Tucatinib]: the drug sensitivity score is 0. For the compound `Nc1cc(F)ccc1NC(=O)c1ccc(CNC(=O)/C=C/c2cccnc2)cc1` [Tucidinostat], the drug sensitivity score came out at 7.2. `CN[C@@H]1C[C@H]2O[C@@](C)([C@@H]1OC)n1c3ccccc3c3c4c(c5c6ccccc6n2c5c31)C(=O)N[C@H]4O` [UCN-01]: the drug sensitivity score stood at 22.8. Still for that read-out and setting: the result for `COC(=O)c1ccc2c(c1)[nH]c1ncnc(NCCCN3CCCCC3)c12` [UM729] reads 0. For the compound `COc1cc2c(NC3CCN(C(C)C)CC3)nc(C3CCCCC3)nc2cc1OCCCN1CCCC1` [UNC0638], the drug sensitivity score is 5.4.

Compound `COc1cc2c(NC3CCN(C(C)C)CC3)nc(N3CCC(F)(F)CC3)nc2cc1OCCCN1CCCC1` [UNC0642] gave a drug sensitivity score of 4.4.
